Experimental data as given in patent publication US20150065440A1 (Progen Pharmaceuticals Limited, priority 2007, published 2015).

Tests used:
RSV = test: Anti-RSV screening assay (viral plaques); assay type: cell-based; conditions: 100 μg/mL, viral plaques relative to mock treated controls
Method: (§1) African green monkey kidney (GMK AH1) cells^46 were cultured in Eagle's minimum essential medium (EMEM) supplemented with 2% calf serum, 0.05% Primaton RL substance (Kraft Inc., Norwich, USA) and antibiotics. Human epidermoid carcinoma (HEp-2) cells were cultured in Dulbecco's modified EMEM (DMEM) supplemented with 10% fetal calf serum and antibiotics. […] The RSV strain A-2^50 was used. The RSV stock was prepared as described by Hallak et al.^51 and stored at −70° C. in the presence of 40% sucrose^52.
(§2) The viral infectivity (the plaque number-reduction) assay and the plaque size-reduction assay were carried out as described previously^17. […] Subsequently, the cells were washed with 2 mL of EMEM and overlaid with 1% methylcellulose solution in EMEM. The plaques were visualized by staining with crystal violet solution after 2 (HSV-2) or 3 (HSV-1) days of incubation at 37° C. […] When the compounds were screened for anti-HSV or anti-RSV activity, mixtures of 200 PFU of the virus and the test compound (100 μg/mL) in serum-free EMEM were incubated for 10 min at room temperature before addition to cells and during the entire period of viral infection of cells and the development of viral plaques. In the plaque size-reduction assay, the compounds were added to cells (in methylcellulose overlay medium) after 2 h period of virus infection of cells in the absence of the inhibitor. After 2-3 days of incubation at 37° C., the viral plaques were visualized by staining the cells with 1% solution of crystal violet. For each compound tested, the images of twenty neighboring plaques were captured using a Leica DC300 digital camera attached to a Leitz-Wetzlar Diavert microscope. The area of each plaque was determined using IM500 image software (Leica). Similar protocols were used for RSV, except that the assays were performed in HEp-2 cells and DMEM supplemented with 2% heat-inactivated fetal calf serum was used instead of EMEM.

[1] = molecular target: T1, recombinant human heparanase (Homo sapiens, UniProt Q9Y251); test: Heparanase inhibition assay (fondaparinux cleavage, WST-1); conditions: read-out: Ki Heparanase; IC50 converted into Ki; fondaparinux 100 μM, pH 5.0
T1 sequence (Q9Y251 158-543 limits assumed): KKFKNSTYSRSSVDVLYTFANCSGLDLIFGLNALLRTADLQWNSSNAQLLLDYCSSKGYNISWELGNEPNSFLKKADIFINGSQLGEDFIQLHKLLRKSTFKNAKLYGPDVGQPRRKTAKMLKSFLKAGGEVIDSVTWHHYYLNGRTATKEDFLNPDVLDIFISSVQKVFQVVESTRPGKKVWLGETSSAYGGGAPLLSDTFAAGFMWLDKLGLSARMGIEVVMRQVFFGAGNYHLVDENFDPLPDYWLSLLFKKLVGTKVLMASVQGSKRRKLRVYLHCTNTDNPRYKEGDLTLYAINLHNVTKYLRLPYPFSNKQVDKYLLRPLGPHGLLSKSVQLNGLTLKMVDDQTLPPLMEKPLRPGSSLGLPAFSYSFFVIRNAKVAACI
T1 sequence (Q9Y251 36-109 limits assumed): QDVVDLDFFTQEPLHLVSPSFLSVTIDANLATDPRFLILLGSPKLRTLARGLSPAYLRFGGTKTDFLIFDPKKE
Method: In the presence of an inhibitor the catalytic activity of heparanase is reduced, and the amount of disaccharide produced and the optical density of the solution are both decreased. The percent inhibition and IC50 of the inhibitor are determined from measurement of the optical density (OD) over a range of inhibitor concentrations.
Assays were carried out in 40 mM sodium acetate buffer, pH 5.0, as follows. […] A blue colour was developed by incubation of the plates at 60° C. for 60 min. […] The IC50 value for each compound was evaluated and converted into a Ki (inhibition constant) using the expression

HSV-1 [2] = test: Anti-HSV screening assay (viral plaques), HSV-1; assay type: cell-based; conditions: 100 μg/mL, viral plaques relative to mock treated controls
Method: as §1, §2

FGF-1 = FGF-1 (Homo sapiens, UniProt P05230); test: Growth factor binding assay (SPR solution affinity), FGF-1; conditions: SPR, HBS-EP buffer, 25° C.; read-out: Kd FGF-1
Chain of FGF-1 (P05230 whole entry, species assumed): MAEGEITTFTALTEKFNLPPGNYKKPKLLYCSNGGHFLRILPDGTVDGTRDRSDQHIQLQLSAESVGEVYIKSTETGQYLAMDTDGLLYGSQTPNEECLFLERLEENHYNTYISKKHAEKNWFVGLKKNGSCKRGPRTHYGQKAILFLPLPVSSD

HSV-2 [3] = test: Anti-HSV screening assay (viral plaques), HSV-2; assay type: cell-based; conditions: 100 μg/mL, viral plaques relative to mock treated controls
Method: as §1, §2

FGF-2 = FGF-2 (Homo sapiens, UniProt P09038); test: Growth factor binding assay (SPR solution affinity), FGF-2; conditions: SPR, HBS-EP buffer containing 0.3 M NaCl, 25° C.; read-out: Kd FGF-2
Chain of FGF-2 (P09038 143-288, species assumed): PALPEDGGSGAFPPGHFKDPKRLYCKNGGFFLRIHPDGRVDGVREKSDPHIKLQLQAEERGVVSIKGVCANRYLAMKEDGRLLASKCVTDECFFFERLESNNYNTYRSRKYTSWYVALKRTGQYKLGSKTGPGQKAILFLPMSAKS
How it was run: (§3)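 Kd measured by SPR solution affinity: fixed growth factor with varying ligand competing for heparin-coated sensorchip, 25 °C. Buffer HBS-EP pH 7.4 (150 mM NaCl) for FGF-1 and VEGF; FGF-2 with 0.3 M NaCl. Duplicate values averaged.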

VEGF = molecular target: T2, VEGF (Homo sapiens, UniProt P15692); test: Growth factor binding assay (SPR solution affinity), VEGF; conditions: HBS-EP buffer, 25° C.
T2 sequence (P15692 207-395): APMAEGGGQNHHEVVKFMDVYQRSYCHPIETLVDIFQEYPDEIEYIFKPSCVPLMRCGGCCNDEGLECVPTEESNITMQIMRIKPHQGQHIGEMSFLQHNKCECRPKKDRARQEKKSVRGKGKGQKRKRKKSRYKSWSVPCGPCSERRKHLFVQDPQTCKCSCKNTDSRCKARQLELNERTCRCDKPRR
How it was run: as §3

GMK AH1 cells = test: Cytotoxicity assay, GMK AH1; assay type: cell-based, African green monkey; conditions: cell viability reduced by 50%
Method: The assay was performed in GMK AH1 cells that had been seeded in 96 well cluster plates and reached approximately 80-90% confluence at day 2 of culture. The cells were washed with EMEM and incubated for 24 h at 37° C. with 100 μL of serial two-fold dilutions of the test compound in serum-free EMEM. The effect of the test compound on cell viability was measured by using the tetrazolium-based CellTiter96 assay according to the manufacturer's protocol (Promega, Madison, Wis., USA).

HSV-2 [4] = test: Viral plaque number-reduction assay, HSV-2; conditions: GMK AH1 cells
How it was run: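 200 PFU virus premixed 10 min with compound (100 μg/mL screen) and kept throughout infection. HSV plaques in GMK AH1 cells, RSV (strain A-2) in HEp-2 cells. Methylcellulose overlay, 37 °C, crystal violet staining after 2 days (HSV-2) or 3 days (HSV-1); plaque numbers counted.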

HSV-1 [5] = test: Viral plaque number-reduction assay, HSV-1; conditions: GMK AH1 cells
Method: as §1, §2

| Structure (SMILES) | Residual infectivity (%) RSV (RSV) [%] | Ki [1] [nM] | Residual infectivity (%) HSV-1 (HSV-1 [2]) [%] | Kd (FGF-1) [nM] | Residual infectivity (%) HSV-2 (HSV-2 [3]) [%] | Kd (FGF-2) [nM] | Kd (VEGF) [nM] | Cytotoxicity CC50 GMK AH1 (GMK AH1 cells) [µg/mL] | Selective index CC50/IC50 HSV-2 (HSV-2 [4]) | Selective index CC50/IC50 HSV-1 (HSV-1 [5]) |
| --- | --- | --- | --- | --- | --- | --- | --- | --- | --- | --- |
| O=S(=O)(O)OCC1OC(OC2C(OCCCCCCCCCCCCn3cc(-c4ccccc4)nn3)OC(COS(=O)(=O)O)C(OS(=O)(=O)O)C2OS(=O)(=O)O)C(OS(=O)(=O)O)C(OC2OC(COS(=O)(=O)O)C(OS(=O)(=O)O)C(OC3OC(COS(=O)(=O)O)C(OS(=O)(=O)O)C(OC4OC(COS(=O)(=O)O)C(OS(=O)(=O)O)C(OS(=O)(=O)O)C4OS(=O)(=O)O)C3OS(=O)(=O)O)C2OS(=O)(=O)O)C1OS(=O)(=O)O [Compound 8, 12-(4-Phenyl-[1,2,3]triazol-1-yl)dodecyl 2,3,4,6-tetra-O-sodium sulfonato-α-D-mannopyranosyl-(1→3)-2,4,6-tri-O-sodium sulfonato-α-D-mannopyranosyl-(1→3)-2,4,6-tri-O-sodium sulfonato-α-D-mannopyranosyl-(1→3)-2,4,6-tri-O-sodium sulfonato-α-D-mannopyranosyl-(1→2)-3,4,6-tri-O-sodium sulfonato-α-D-mannopyranoside] | 3 | 3.5 ± 0.4 | 7 | 2.3 ± 1.3 | 0.2 | 253 ± 25 | 5.1 ± 1.8 | – | – | – |
| O=S(=O)(O)OCC1OC(OC2C(OCCCCCCCCCCCCn3cc(-c4cccc5ccccc45)nn3)OC(COS(=O)(=O)O)C(OS(=O)(=O)O)C2OS(=O)(=O)O)C(OS(=O)(=O)O)C(OC2OC(COS(=O)(=O)O)C(OS(=O)(=O)O)C(OC3OC(COS(=O)(=O)O)C(OS(=O)(=O)O)C(OC4OC(COS(=O)(=O)O)C(OS(=O)(=O)O)C(OS(=O)(=O)O)C4OS(=O)(=O)O)C3OS(=O)(=O)O)C2OS(=O)(=O)O)C1OS(=O)(=O)O [Compound 11, 12-(4-Naphthalen-1-yl-[1,2,3]triazol-1-yl)dodecyl 2,3,4,6-tetra-O-sodium sulfonato-α-D-mannopyranosyl-(1→3)-2,4,6-tri-O-sodium sulfonato-α-D-mannopyranosyl-(1→3)-2,4,6-tri-O-sodium sulfonato-α-D-mannopyranosyl-(1→3)-2,4,6-tri-O-sodium sulfonato-α-D-mannopyranosyl-(1→2)-3,4,6-tri-O-sodium sulfonato-α-D-mannopyranoside] | 0 | 4.8 ± 1.8 | 0 | 0.19 ± 0.1 | 0 | 73 ± 23 | 0.79 ± 0.24 | >400 | > 444 | > 222 |
